Source: patent US7361633B2, “Screening method and anti-tumor drug candidate obtained therefrom” (Ardana Bioscience Limited, priority 2002, dated 2008)
Entries after “also recorded” stand apart in the source; their conditions may differ.

Tests used:
Format in all cases: cell-based, human
JNK2 = experiment: Phosphorylation of immunoprecipitated myc-JNK2 in JEG-3 cells; conditions: for activation (phosphorylation) of myc-JNK2: 100 nM; for effect of PTX pre-incubation on JNK phosphorylation: ligand 100 nM, PTX 16 h 200 ng/ml
Description: (§1) The activation of two other forms of mitogen-activated protein kinase (MAPK) was studied in JEG-3 and BPH-1 cells by overexpressing myc-tagged constructs of JNK2 or p38α. Immunoprecipitation of these constructs after GnRHR-ligand stimulation of either cell line allowed the degree of kinase activation to be assessed using antisera specific for the active, phosphorylated, form of the kinase. […] In both panel a and b, the dose of GnRH I employed was 100 nM. The respective histograms in each panel represent the mean±s.e. mean of three experimental replicate time courses.
The inset immunoblots depict the phosphorylation status of the immunoprecipitated JNK2 increasing while the level of total unphosphorylated protein (detected with α-JNK antisera) remains unchanged. The histogram below depicts the mean±s.e. mean of three experimental replicates of the above western blot. Stimulation of BPH-1 cells with the same range of ligands (Panel b) yields a similar pattern of MAPK activation, but in this case p38α. […] The inset immunoblots depict an increasing phosphorylation of p38α with no increase in total p38α protein. The histograin below depicts the mean±s.e. mean of three experimental replicates of the above western blot.
(§2) Stimulation of JNK in JEG-3 cells and p38 in BPH-1 cells and its sensitivity to pre-exposure to PTX was assessed by measuring the degree of activating phosphorylation of immunoprecipitated myc-JNK2 or myc-p38α. Panel a depicts a representative western blot of immunoprecipitated myc-JNK2 from JEG-3 cells stimulated with either GnRH I (100 nM) or Ant 135-25 (100 nM). The phosphorylation status of JNK was elevated by GnRH I and Ant135-25 with no significant alteration in total immunoprecipitated JNK levels (assessed by immunoblot with α-myc antisera). […] The histograms in panels b and c depict the mean±s.e. mean of three experimental replicates of the above western blot (panel a) experiments. Panel d depicts an identical experiment to that in panel a except that it is the phosphorylation status of immunoprecipitated myc-p38α that is being measured. […] The histograms in panels e and f depict the mean±s.e. mean of three experimental replicates of the above western blot (panel d) experiments.
Thus it appears that the ability of the GnRH-induced stimulation of either JEG-3 or BPH-1 cells is not correlated to their anti-proliferative action. […] Using specific antisera against the kinase active form of ERK5 (or BMK) we observed no specific activation of this form of MAPK however using antisera specifically recognising the active forms of either c-Jun N-terminal kinase (JNK) or p38 MAPK we noted that in JEG-3 cells there was a potent, yet delayed GnRH-induced activation of JNK and a similarly slow inset activation of p38 in the BPH-1 cells. The level of activation of the endogenous stress-activated protein kinases (SAPKs) was relatively small but greater than the GnRH-activated ERK levels in these cells. To further investigate the validity of the observed SAPK activation we transfected the tumour cell lines with myc-tagged JNK2 or p38α MAPK isoforms, stimulated the cells with GnRH and then immunoprecipitated with anti-myc sera and western blotted the immunoprecipitates for total JNK/p38 protein and active JNK/p38. In FIG. 7 (panel a) GnRH causes a demonstrable, time-dependent and protracted activation of the immunoprecipitated JNK2. Activation of JNK2 typically only occurred after 30 minutes of GnRH I stimulation. […] As with the activation of the JNK in the JEG-3 cells there was a considerable delay in the onset of the p38 activation unlike the ERK signalling events that typically occur and peak within 20 minutes of GnRH ligand application (FIG. 7, panel b).

p38α = experiment: Phosphorylation of immunoprecipitated myc-p38α in BPH-1 cells; conditions: for activation (phosphorylation) of myc-p38α / effect of PTX pre-exposure on p38α activation: BPH-1 cells; for activation (phosphorylation) of myc-p38α: 100 nM; for effect of PTX pre-exposure on p38α activation: PTX 16 h 200 ng/ml
Description: as §1
The histogram below depicts the mean±s.e. mean of three experimental replicates of the above western blot. […] The histograin below depicts the mean±s.e. mean of three experimental replicates of the above western blot.
as §2, with “myc-p38α.” for “myc-p38α. Panel a depicts a representative western blot of immunoprecipitated myc-JNK2 from JEG-3 cells stimulated with either GnRH I (100 nM) or Ant 135-25 (100 nM). The phosphorylation status of JNK was elevated by GnRH I and Ant135-25 with no significant alteration in total immunoprecipitated JNK levels (assessed by immunoblot with α-myc antisera).”
To further investigate the validity of the observed SAPK activation we transfected the tumour cell lines with myc-tagged JNK2 or p38α MAPK isoforms, stimulated the cells with GnRH and then immunoprecipitated with anti-myc sera and western blotted the immunoprecipitates for total JNK/p38 protein and active JNK/p38.

Gαi-type G protein = experiment: Inhibition of forskolin-stimulated cAMP accumulation in BPH-1 cells; conditions: for FSK-stimulated intracellular cAMP accumulation after ligand pre-exposure: 100 nM, pre-exposure 10, 30, 60 minutes; for effect of PTX on ligand-mediated inhibition of FSK-stimulated cAMP accumulation: 60 minute pre-exposure, PTX 200 ng/ml 16 h
From the text: In both BPH-1 and JEG-3 cells GnRH and Ant 135-25 can antagonize forskolin (FSK) stimulated intracellular cAMP accumulation. Panels a and b respectively depict the effects of FSK, GnRH I and Ant 135-25 upon intracellular levels of cAMP in BPH-1 and JEG-3 cells measured using a calorimetric Biomol cAMP assay kit. […] Each histogram in panels a to d depicts the mean±s.e. mean of three to four experimental replicates of the cAMP accumulation assay.
Thus we noted that when cyclic adenosine monophosphate levels (cAMP) were measured using a commercially available […] assay system (Biomol) the ability of forskolin (1 μM in JEG-3 and 3 μM in BPH-1, sufficient to give a 50% Rmax response in each case) was blunted with extended cellular pre-treatment times (10 to 60 minutes) with either 100 nM GnRH I or Ant 135-25 (FIG. 9, panel a-BPH, panel b-JEG). […] Therefore it appears that both ligands can efficiently activate the adenylate cyclase inhibitory activity of Gαi in both cell models tested.

Compound | effect on GnRH I stimulation of JNK (JNK2; 20 μM SB203580, data not shown) | effect on GnRH-mediated activation of p38α (p38α) | FSK-stimulated intracellular cAMP accumulation after ligand pre-exposure (Gαi-type G protein) | effect of PTX on ligand-mediated inhibition of FSK-stimulated cAMP accumulation (Gαi-type G protein) | activation (phosphorylation) of myc-JNK2 (JNK2) | effect of PTX pre-incubation on JNK phosphorylation (JNK2) | activation (phosphorylation) of myc-p38α (p38α) | effect of PTX pre-exposure on p38α activation (p38α) | activation (phosphorylation) of myc-JNK2 (JNK2; listed as Ant135-18) | activation (phosphorylation) of myc-p38α (p38α; listed as Ant135-18) | time to onset of JNK2 activation (JNK2)
C[S+]([O-])c1ccc(-c2nc(-c3ccncc3)c(-c3ccc(F)cc3)[nH]2)cc1 (stereo not shown) [SB203580] | effectively abrogates the ability of GnRH I to stimulate JNK | significantly blunted the GnRH-mediated activation of p38α | – | – | – | – | – | – | – | – | –
Ac-D-Nal(2)-D-4-ClPhe-D-Pal-Ser-1-MePal-D-IsopropylLys-Leu-IsopropylLys-Pro-D-AlaNH2 [Ant 135-25] | – | – | significantly reduced; also recorded: blunted | can be specifically inhibited with a 16 h pre-incubation of the cells with 200 ng/ml of PTX; also recorded: attenuated by a 16 h pre-treatment with 200 ng/ml PTX | can efficiently activate the myc-JNK2 construct | abolished with the PTX pre-incubation | effectively activate p38α | acutely sensitive to the pre-exposure of PTX | – | – | –
Ac-D-Nal(2)-D-4-ClPhe-D-Pal-Ser-Ile-D-IsopropylLys-Leu-IsopropylLys-Pro-D -AlaNH2 [Ant 135-18] | – | – | – | – | fails to efficiently activate JNK | – | does not | – | dramatically lower efficacy than GnRH I or Ant 135-25 | dramatically lower efficacy than GnRH I or Ant 135-25 | –
GnRH I: Gonadotropin-Releasing Hormone, a decapeptide; the original form of GnRH, re-named GnRH I | – | – | significantly reduced; also recorded: blunted | can be specifically inhibited with a 16 h pre-incubation of the cells with 200 ng/ml of PTX; also recorded: attenuated by a 16 h pre-treatment with 200 ng/ml PTX | significant activation of the immunoprecipitated myc-JNK2; also recorded: can efficiently activate the myc-JNK2 construct | abolished with the PTX pre-incubation | significant activation of myc-p38α; also recorded: effectively activate p38α; also recorded: protracted activation of the immunoprecipitated myc-p38α | acutely sensitive to the pre-exposure of PTX | – | – | > 30 min
